Values of other authors in publication PMC8198792, “Prediction of Anticancer Peptides with High Efficacy and Low Toxicity by Hybrid Model Based on 3D Structure of Peptides” (International Journal of Molecular Sciences, 2021).
Read-outs that look alike come from different tables or passages of the source.

Test system: cancer cell lines
Design: method as in 6 sources, ref CancerPPD [45] and SATPdb ||| ref CancerPPD/SATPdb ||| ref CancerPPD, SATPdb, Swissprot (PDB) ||| ref CancerPPD/SATPdb/Swissprot(PDB) ||| ref CancerPPD / SATPdb ||| ...
Settings: cited from earlier work
Source text: Supplement ijms-22-05630-s001.zip/ACPs(seguence).xlsx, sheet "D1" | column: Activity || Supplement ijms-22-05630-s001.zip/ACPs(seguence).xlsx, sheet "D2" | column: Activity || Supplement ijms-22-05630-s001.zip/ACPs(seguence).xlsx, sheet "D3" | column: Activity || (+ 2 further places)

[1] = ACPs dataset D1, 1 = ACP (positive), 0 = non-ACP (negative), label taken from databases, ref CancerPPD [45] and SATPdb
[2] = ACPs dataset D4 (sheet "D4"), label 1 = ACP, experimentally validated ACPs, ref CancerPPD [45] and SATPdb
[3] = ACPs dataset D5 (sheet "D5"), label 1 = ACP (positive set), sequences with CancerPPD/SATPdb ID, ref CancerPPD, SATPdb
[4] = ACPs dataset sheet D2, 1 = ACP (CancerPPD/SATPdb ID), 0 = non-ACP (Swissprot/PDB ID), ref CancerPPD, SATPdb, Swissprot (PDB)
[5] = ACPs dataset D5 (sheet "D5"), label 1 = ACP (positive set), 0 = non-ACP (negative set), ref CancerPPD [45] and SATPdb
[6] = ACPs dataset D1, label 1 = ACP, 0 = non-ACP (non-anticancer AMPs from SATPdb), ref CancerPPD/SATPdb
[7] = ACPs dataset D4 (sheet "D4"), label 1 = ACP, 0 = non-ACP, ref CancerPPD / SATPdb
[8] = ACPs dataset D4 (sheet "D4"), label 1 = ACP (CancerPPD ID), 0 = non-ACP (non-anticancer AMP, SATPdb ID), ref CancerPPD [45] and SATPdb
[9] = ACPs dataset D3 (supplement sheet "D3"), 1 = ACP, 0 = non-ACP, ref CancerPPD [45] and SATPdb
[10] = ACPs dataset D3 (sheet "D3"), label 1 = ACP, 0 = non-ACP, ref CancerPPD/SATPdb
[11] = ACPs dataset D5, sheet "D5", label 1 = ACP, 0 = non-ACP, ref CancerPPD [45] and SATPdb
[12] = ACPs dataset D2 (supplement ACPs(seguence).xlsx, sheet D2), dataset label 1/0 (ACP / non-ACP), entries identified by Swissprot(PDB ID), ref CancerPPD/SATPdb/Swissprot(PDB)

Substance: FLPIIAGAAAKVVEKIFCAISKKC [compound 4357]
- Activity [1]: 1
- Activity [2]: 1
- Activity [3]: 1
- Activity [4]: 1

Substance: CSNLSTCVLGKLSQELHKLQTYPRTDVGAGTP [1BKU NMR - A 1-32]
- Activity [5]: 0
- Activity [4]: 0

Substance: SPWTKCSATCGGGHYMRTR [satpdb19979]
- Activity [1]: 1
- Activity [2]: 1
- Activity [3]: 1
- Activity [4]: 1

Substance: DLRFWNPREKLPLPTLPPFNPKPIYIDMGNRY [satpdb12945]
- Activity [6]: 0
- Activity [7]: 0

Substance: GTLPCGESCVWIPCISAVVGCSCKSKVCYKN [satpdb10694]
- Activity [1]: 0
- Activity [8]: 0

Substance: FLPVIAGVAANFLPKLFCAISKKC [compound 4361]
- Activity [1]: 1
- Activity [2]: 1
- Activity [3]: 1
- Activity [4]: 1

Substance: KWKIFKKIEHMGQNIRDGLIKAGPAVQVVGQAATIYKG [satpdb11253]
- Activity [1]: 0
- Activity [8]: 0

Substance: KWKLFKKIPKFLHLAKK [compound 1119]
- Activity [9]: 1
- Activity [8]: 1
- Activity [5]: 1

Substance: GLFAVIKKVAAVIRRL [compound 4129]
- Activity [9]: 1
- Activity [8]: 1
- Activity [5]: 1

Substance: TNYGNGVGVPDAIMAGIIKLIFIFNIRQGYNFGKKAT [satpdb11292]
- Activity [1]: 0
- Activity [8]: 0

Substance: KWKLFKKIGIGKFLHSAKKF [compound 1204]
- Activity [9]: 1
- Activity [8]: 1
- Activity [5]: 1

Substance: GWKKWFNRAKKVGKTVGGLAVDHYLG [satpdb11446]
- Activity [6]: 0
- Activity [8]: 0

Substance: SNASVWECCSTGSWVPFTCC [satpdb10213]
- Activity [1]: 0
- Activity [8]: 0

Substance: GLFVGVLAKVAAHVVPAIAEHF [compound 4391]
- Activity [1]: 1
- Activity [2]: 1
- Activity [3]: 1
- Activity [4]: 1

Substance: TEWTACSKSCGMGFSTRV [satpdb28517]
- Activity [1]: 1
- Activity [2]: 1
- Activity [3]: 1
- Activity [4]: 1

Substance: KWKSFIKKAKTSFLHSAKKF [satpdb14273]
- Activity [10]: 0
- Activity [7]: 0
- Activity [11]: 0

Substance: MFFSSKKCKTVSKTFRGPCVRNA [satpdb11127]
- Activity [1]: 0
- Activity [8]: 0

Substance: ASSGWVCTLTIECGTVICACR [satpdb11450]
- Activity [6]: 0
- Activity [8]: 0

Substance: GECEQCFSDGGDCTTCFNNGTGPCANCLAGYPAGCSNSDCTAFLSQCYGGC [1HA8 NMR - A 1-51]
- Activity [12]: 0
- Activity [11]: 0

Substance: SPWSQCTASCGGGVQTR [satpdb21725]
- Activity [1]: 1
- Activity [2]: 1
- Activity [3]: 1
- Activity [4]: 1

Substance: KVMAHMK [satpdb14375]
- Activity [10]: 0
- Activity [7]: 0
- Activity [11]: 0

Substance: FLGALFHALSKLL [compound 3266]
- Activity [1]: 1
- Activity [2]: 1
- Activity [3]: 1
- Activity [4]: 1

Substance: AEDCVGRKACTREWYPVCGSDGVTYSNPCNFSAQQEQCDPNITIAHMGEC [2N71 NMR - A 1-50]
- Activity [12]: 0
- Activity [5]: 0

Substance: FLPIIGQLLSGLL [satpdb10701]
- Activity [9]: 0
- Activity [7]: 0
- Activity [11]: 0

Substance: AKRHHGYKRKFH [compound 1423]
- Activity [9]: 1
- Activity [2]: 1
- Activity [3]: 1

Substance: GKWKKILGHLIR [compound 3645]
- Activity [9]: 1
- Activity [8]: 1
- Activity [5]: 1

Substance: MDIYVCTVCGYEYDPAKGDPDSGIKPGTKFEDLPDDWACPVCGASKDAFEKQ [2DSX X-ray 0.68 A 1-52]
- Activity [12]: 0
- Activity [11]: 0

Substance: KKVCACPKILKPVCGSDGRTYANSCIARCNGVSIKSEGSCPTGILN [1LDT X-ray 1.90,L,1-46]
- Activity [12]: 0
- Activity [5]: 0

Substance: GIWDTIKSMGKVFAGKILQN [satpdb10030]
- Activity [1]: 0
- Activity [8]: 0

Substance: GLFAVIKKVASVIKKL [compound 4111]
- Activity [9]: 1
- Activity [8]: 1
- Activity [5]: 1

Substance: FLPAIAGMAAKFLPKIFCAISKKC [satpdb12699]
- Activity [6]: 0
- Activity [7]: 0

Substance: YTMNPRKLFDY [satpdb15978]
- Activity [1]: 1
- Activity [2]: 1
- Activity [3]: 1
- Activity [4]: 1

Substance: GTWDDIGQGIGRVAYWVGKAMGNMSDVNQASRINRKKKH [2JPJ NMR - A 1-39]
- Activity [12]: 0
- Activity [5]: 0

Substance: FIHHIFRGIVHAGRSIGRFLTG [2MCW NMR - A 1-22]
- Activity [5]: 0
- Activity [4]: 0

Substance: GIFGKILGAGKKVLCGLSGLC [satpdb11792]
- Activity [6]: 0
- Activity [8]: 0

Substance: KCGHKHQCAVHN [satpdb17767]
- Activity [1]: 1
- Activity [2]: 1
- Activity [3]: 1
- Activity [4]: 1

Substance: LVPRGSRAGSPSGGPFCALARQPLTGARLMSGLFFALHET [satpdb15805]
- Activity [1]: 1
- Activity [2]: 1
- Activity [3]: 1
- Activity [4]: 1

Substance: AIGKFLHSAKKFGKAFVGEIMNS [compound 1041]
- Activity [9]: 1
- Activity [2]: 1
- Activity [3]: 1

Substance: GLFDIAKKVIGVIGSL [compound 1270]
- Activity [9]: 1
- Activity [8]: 1
- Activity [5]: 1

Substance: GRRKRKWLRRIGKGVKIIGGAALDHL [compound 4351]
- Activity [9]: 1
- Activity [8]: 1
- Activity [5]: 1

Substance: KRGFGKKLRKRLKKFRNSIKKRLKNFNVVIPIPLPG [satpdb11105]
- Activity [1]: 0
- Activity [8]: 0

Substance: YRGGYTGPIPRPPPIGRPPLRLVVCACYRLS [satpdb12661]
- Activity [6]: 0
- Activity [8]: 0

Substance: KWKLFKKIPLKKF [compound 1122]
- Activity [9]: 1
- Activity [8]: 1
- Activity [5]: 1

Substance: PLLQATLGGGS [compound 3726]
- Activity [1]: 1
- Activity [2]: 1
- Activity [3]: 1
- Activity [4]: 1

Substance: GKIPVKAIKKAGAAIGKGLRAINIASTAHDVYSFFKPKHKKK [satpdb13363]
- Activity [6]: 0
- Activity [7]: 0

Substance: GMWKKILGKLIR [compound 3643]
- Activity [9]: 1
- Activity [8]: 1
- Activity [5]: 1

Substance: FKIPPIVKDTLKKFFKGGIAGVMGQ [satpdb10550]
- Activity [1]: 0
- Activity [8]: 0

Substance: KWKSFLKTFKSlKKTVLHTlLKAISS [compound 3756]
- Activity [9]: 1
- Activity [8]: 1
- Activity [5]: 1

Substance: RCRLAERRQIAK [satpdb18274]
- Activity [1]: 1
- Activity [2]: 1
- Activity [3]: 1
- Activity [4]: 1

Substance: GLFDIVKKVVGAIGSL [compound 4407]
- Activity [1]: 1
- Activity [2]: 1
- Activity [3]: 1
- Activity [4]: 1

Substance: MISDEQLNSLAITFGIVMMTLIVIYHAVDSTMSPKN [1RKL NMR - A 1-36]
- Activity [12]: 0
- Activity [5]: 0

Substance: RLGDILQKAREKIEGGLKKLVQKIKDFFGKFAPRTES [satpdb11337]
- Activity [1]: 0
- Activity [8]: 0

Substance: MEKVQYLTRSAIRRASTIEMPQQARQNLQNLFINFCLILICLLLICIIVMLL [1N7L NMR - A 1-52]
- Activity [12]: 0
- Activity [11]: 0

Substance: LCYCRRRFCGCV [satpdb12860]
- Activity [6]: 0
- Activity [7]: 0
